Reference: patent US7884070B2, “Linear cationic peptides having antibacterial and/or antifungal properties” (priority 2002, dated 2011)
In brackets after ≈: the same amount, converted by molar mass. Where a SMILES comes first, the peptide text is derived from it.

What was measured:
[1] = test system: Acinetobacter baumanii ATCC 19606; format: cell-based
[2] = test system: Citrobacter freundii ATCC 8090; format: cell-based
[3] = test system: Enterobacter aerogenes ATCC 13048; format: cell-based
[4] = test system: Enterobacter cloacae ATCC 23355; format: cell-based
[5] = test system: Escherichia coli ATCC 25922; format: cell-based
[6] = test system: Escherichia coli ATCC 35218; format: cell-based
[7] = test system: Haemophilus influenzae ATCC 49247; format: cell-based
[8] = test system: Klebsiella pneumoniae ATCC 13883; format: cell-based
[9] = test system: Listeria monocytogenes ATCC 19115; format: cell-based
Neisseria sica ATCC 9913 = format: cell-based
[10] = test system: Proteus vulgaris ATCC 13315; format: cell-based
[11] = test system: Pseudomonas aeruginosa ATCC 27853; format: cell-based
[12] = test system: Salmonella typhimurium ATCC 14028; format: cell-based
[13] = test system: Serratia marcescens ATCC 8100; format: cell-based
[14] = test system: Shigella sonnei ATCC 25931
Method: The MIC values were determined by the method of microdilution in liquid medium (NCCLS M7A5) for all of the bacterial species on 96-well polystyrene plates.
The culture medium was Mueller-Hinton broth (MHB) (pH≈7.2-7.4) with supplements according to the bacterial species studied: • MHB alone for the non-exigent species, • MHB+3% lysed horse blood for the streptococci, Listeria and Neisseria, • MHB+hemin 15 mg/l+NAD 15 mg/l+yeast extract 5 g/l for Haemophilus.
The bacterial inoculum was prepared from re-isolation performed on: • CLED agar: non-exigent strains, • blood agar+5% goat blood: streptococci, Listeria and Neisseria • chocolate agar+5% goat blood: Haemophilus, Neisseria.
The final inoculum was at ≈5·10^5 cfu/ml (colony forming units). 50 μl of bacterial inoculum was distributed per well containing an equal volume of the peptide solution diluted by half in the appropriate culture medium depending on the bacterial species (0.5 to 512 μg/ml). The cultures were incubated at 35° C. in ambient air for 16 to 20 hours (20 to 24 h for the streptococci).
Determination of the MBC values was performed after inhibition and reading of the MIC plates:
A volume of 3 μl of each concentration of antibiotic was deposited on the agar media: • MH: for the non-exigent strains, • MH+5% sheep blood: for the streptococci, Listeria, Bacillus and Neisseria, • HTM: for the Haemophilus.
The agars were incubated for 18 h at 35° C. in atmosphere: • in ambient air: for the non-exigent strains, • with 5-6% of CO2: for the streptococci, Listeria, Haemophilus and Neisseria.
The MBC is the lowest concentration of antibiotic that inhibits all bacterial growth on the transplant agar (<0. 1% of survivors).

[15] = test system: Bacillus cereus ATCC 11778; format: cell-based
[16] = test system: Bacillus subtilis ATCC 6633; format: cell-based
[17] = test system: Enterococcus faecalis ATCC 19433; format: cell-based
[18] = test system: Enterococcus faecalis ATCC 29212; format: cell-based
[19] = test system: Enterococcus faecium ATCC 35667; format: cell-based
[20] = test system: Micrococcus luteus ATCC 9341; format: cell-based
[21] = test system: Staphylococcus aureus ATCC 14154; format: cell-based
[22] = test system: Staphylococcus aureus ATCC 25923; format: cell-based
[23] = test system: Staphylococcus epidermidis ATCC 12228; format: cell-based
[24] = test system: Streptococcus agalactiae ATCC 13813; format: cell-based
[25] = test system: Streptococcus pneumoniae ATCC 6303; format: cell-based
[26] = test system: Streptococcus pneumoniae ATCC 49619; format: cell-based
[27] = test system: Streptococcus pyogenes ATCC 19615; format: cell-based
[28] = test system: Acinetobacter baumanii clinical strains; format: cell-based
Method: A volume of 3 μl of each concentration of antibiotic was deposited on the agar media: • MH: for the non-exigent strains, • MH+5% sheep blood: for the streptococci, Listeria, Bacillus and Neisseria, • HTM: for the Haemophilus. […]

[29] = test system: Enterobacter aerogenes clinical strains; format: cell-based
C. neoformans Cn52D = format: cell-based, Cryptococcus neoformans
Method: D. Determination of the miminimal inhibitory concentration (MIC) in liquid medium for the Filamentous Fungi and Yeast
Peptide concentrations tested: from 0.2 μg/ml to 100 μg/ml.

[30] = In vivo toxicity: maximal tolerated dose (MTD); conditions: mouse, female OFI mice, intravenous perfusion approx. 15 minutes, 28 days after an injection
Method: The maximal tolerated dose (MTD) for each peptide was determined on female OFI mice at 28 days after an injection. The MTD was defined as the maximal nonlethal dose that could be injected. The peptides were administered by the intravenous route as a perfusion of approximately 15 minutes duration. The injection volume was 10 μl/g, the perfusion rate was 1.2 ml/hour and the excipient was a solution of NaCl at 0.8%.

[31] = test system: Shigella flexneri ATCC 112022
in vitro = conditions: human, human plasma
Method: The stability was determined at 37° C. After 0, 0.5, 1, 2, 4 and 6 hours, 3×200 μl were collected and added to 10 μl of internal standard (peptide no. 1) at 500 μM in water, to which 800 μl of 0.1% trifluoroacetic acid (TFA) in water was added. A volume of 1 ml of this mixture was deposited on resin C2 (EC) that had previously been equilibrated with 1 ml of 0.1% TFA in water, 1 ml of 0.1% TFA in acetonitrile and 1 ml of 0.1% TFA in water. After two washings with 1 ml of 0.1% TFA in water, the elution of peptide and of its metabolites was induced by 1 ml of 0.1% TFA in methanol. This was then dried under a stream of air and taken up in 200 μl of 0.1% TFA in water. A volume of 100 μl was analyzed by HPLC on a Luna C1 8(2) column, 3 μg, 4.6×100 mm (Phenomenex) with 0.1% TFA in water as solvent A and 0.1% TFA in acetonitrile as solvent B. A gradient of 15-45% of B in 12 minutes was used for the elution with a flow rate of 1.2 ml/min; detection was performed at 214 nm.

CC(C)C[C@H](NC(=O)[C@H](CCCCN)NC(=O)[C@H](C)NC(=O)[C@H](CC(C)C)NC(=O)[C@@H](N)CCCCN)C(=O)N[C@@H](C)C(=O)N[C@@H](CCCCN)C(=O)N[C@@H](CCCCN)C(=O)N[C@@H](CC(C)C)C(=O)N[C@@H](C)C(=O)N[C@@H](CCCCN)C(=O)N[C@@H](CC(C)C)C(=O)N[C@@H](C)C(=O)N[C@@H](CCCCN)C(=O)N[C@@H](CCCCN)C(=O)N[C@@H](Cc1c[nH]cn1)C(=O)N[C@@H](CC(C)C)C(=O)N[C@@H](CCCCN)C(=O)N[C@@H](CCCCN)C(=O)N[C@@H](Cc1c[nH]cn1)C(=O)N[C@@H](CC(C)C)C(=O)N[C@@H](CCCCN)C(=O)N[C@@H](CCCCN)C(=O)N[C@@H](Cc1c[nH]cn1)C(=O)N[C@@H](CC(C)C)C(=O)N[C@@H](CCCCN)C(=O)O [Peptide 2] (H-KLAKLAKKLAKLAKKHLKKHLKKHLK-OH; N-terminus and C-terminus assumed)
MBC [1]: 2 µg/mL (≈ 0.657 µM) | MIC [1]: 2 µg/mL (≈ 0.657 µM) | MBC [2]: 8 µg/mL (≈ 2.63 µM) | MIC [2]: 8 µg/mL (≈ 2.63 µM) | MBC [3]: 16 µg/mL (≈ 5.26 µM) | MIC [3]: 16 µg/mL (≈ 5.26 µM) | MBC [4]: 2 µg/mL (≈ 0.657 µM) | MIC [4]: 2 µg/mL (≈ 0.657 µM) | MBC [5]: 2 µg/mL (≈ 0.657 µM) | MIC [5]: 2 µg/mL (≈ 0.657 µM) | MBC [6]: 2 µg/mL (≈ 0.657 µM) | MIC [6]: 2 µg/mL (≈ 0.657 µM) | MBC [7]: 32 µg/mL (≈ 10.5 µM) | MIC [7]: 32 µg/mL (≈ 10.5 µM) | MBC [8]: 32 µg/mL (≈ 10.5 µM) | MIC [8]: 32 µg/mL (≈ 10.5 µM) | MBC [9]: 2 µg/mL (≈ 0.657 µM) | MIC [9]: 2 µg/mL (≈ 0.657 µM) | MBC (Neisseria sica ATCC 9913): 0.5 µg/mL (≈ 0.164 µM) | MIC (Neisseria sica ATCC 9913): 0.5 µg/mL (≈ 0.164 µM) | MBC [10]: 4 µg/mL (≈ 1.31 µM) | MIC [10]: 4 µg/mL (≈ 1.31 µM) | MBC [11]: 8 µg/mL (≈ 2.63 µM) | MIC [11]: 8 µg/mL (≈ 2.63 µM) | MBC [12]: 4 µg/mL (≈ 1.31 µM) | MIC [12]: 4 µg/mL (≈ 1.31 µM) | MBC [13]: >512 µg/mL | MIC [13]: >512 µg/mL | MBC [14]: 2 µg/mL (≈ 0.657 µM) | MIC [14]: 2 µg/mL (≈ 0.657 µM) | MBC [15]: 8 µg/mL (≈ 2.63 µM) | MIC [15]: 8 µg/mL (≈ 2.63 µM) | MBC [16]: 8 µg/mL (≈ 2.63 µM) | MIC [16]: 8 µg/mL (≈ 2.63 µM) | MBC [17]: 128 µg/mL (≈ 42.1 µM) | MIC [17]: 64 µg/mL (≈ 21 µM) | MBC [18]: 32 µg/mL (≈ 10.5 µM) | MIC [18]: 32 µg/mL (≈ 10.5 µM) | MBC [19]: 32 µg/mL (≈ 10.5 µM) | MIC [19]: 16 µg/mL (≈ 5.26 µM) | MBC [20]: 4 µg/mL (≈ 1.31 µM) | MIC [20]: 4 µg/mL (≈ 1.31 µM) | MBC [21]: 64 µg/mL (≈ 21 µM) | MIC [21]: 32 µg/mL (≈ 10.5 µM) | MBC [22]: 32 µg/mL (≈ 10.5 µM) | MIC [22]: 16 µg/mL (≈ 5.26 µM) | MBC [23]: 2 µg/mL (≈ 0.657 µM) | MIC [23]: 2 µg/mL (≈ 0.657 µM) | MBC [24]: 8 µg/mL (≈ 2.63 µM) | MIC [24]: 8 µg/mL (≈ 2.63 µM) | MBC [25]: 128 µg/mL (≈ 42.1 µM) | MIC [25]: 32 µg/mL (≈ 10.5 µM) | MBC [26]: 256 µg/mL (≈ 84.1 µM) | MIC [26]: 16 µg/mL (≈ 5.26 µM) | MBC [27]: 8 µg/mL (≈ 2.63 µM) | MIC [27]: 8 µg/mL (≈ 2.63 µM) | MIC [28]: 2 µg/mL (≈ 0.657 µM) | MBC [29]: 8 µg/mL (≈ 2.63 µM) | MIC (C. neoformans Cn52D): 1.56 µg/mL (≈ 0.512 µM) | MTD at 28 days [30]: 13.5 mg/kg | MBC [31]: 2 µg/mL (≈ 0.657 µM) | MIC [31]: 2 µg/mL (≈ 0.657 µM) | metabolised at 6 h, 50 µM (in vitro): ≤ 41%
